Legend:
[1] = biological target: T1, KRAS G12D and SOS1 proteins (Homo sapiens, UniProt Q07889); test: KRAS-G12D/SOS1 binding assay (HTRF); details: Tag1-SOS1 / Tag2-KRAS G12D, 10 μM GTP
T1 construct: purchased Cisbio 63ADK000CB17PEG
T1 sequence (Q07889 1-1333): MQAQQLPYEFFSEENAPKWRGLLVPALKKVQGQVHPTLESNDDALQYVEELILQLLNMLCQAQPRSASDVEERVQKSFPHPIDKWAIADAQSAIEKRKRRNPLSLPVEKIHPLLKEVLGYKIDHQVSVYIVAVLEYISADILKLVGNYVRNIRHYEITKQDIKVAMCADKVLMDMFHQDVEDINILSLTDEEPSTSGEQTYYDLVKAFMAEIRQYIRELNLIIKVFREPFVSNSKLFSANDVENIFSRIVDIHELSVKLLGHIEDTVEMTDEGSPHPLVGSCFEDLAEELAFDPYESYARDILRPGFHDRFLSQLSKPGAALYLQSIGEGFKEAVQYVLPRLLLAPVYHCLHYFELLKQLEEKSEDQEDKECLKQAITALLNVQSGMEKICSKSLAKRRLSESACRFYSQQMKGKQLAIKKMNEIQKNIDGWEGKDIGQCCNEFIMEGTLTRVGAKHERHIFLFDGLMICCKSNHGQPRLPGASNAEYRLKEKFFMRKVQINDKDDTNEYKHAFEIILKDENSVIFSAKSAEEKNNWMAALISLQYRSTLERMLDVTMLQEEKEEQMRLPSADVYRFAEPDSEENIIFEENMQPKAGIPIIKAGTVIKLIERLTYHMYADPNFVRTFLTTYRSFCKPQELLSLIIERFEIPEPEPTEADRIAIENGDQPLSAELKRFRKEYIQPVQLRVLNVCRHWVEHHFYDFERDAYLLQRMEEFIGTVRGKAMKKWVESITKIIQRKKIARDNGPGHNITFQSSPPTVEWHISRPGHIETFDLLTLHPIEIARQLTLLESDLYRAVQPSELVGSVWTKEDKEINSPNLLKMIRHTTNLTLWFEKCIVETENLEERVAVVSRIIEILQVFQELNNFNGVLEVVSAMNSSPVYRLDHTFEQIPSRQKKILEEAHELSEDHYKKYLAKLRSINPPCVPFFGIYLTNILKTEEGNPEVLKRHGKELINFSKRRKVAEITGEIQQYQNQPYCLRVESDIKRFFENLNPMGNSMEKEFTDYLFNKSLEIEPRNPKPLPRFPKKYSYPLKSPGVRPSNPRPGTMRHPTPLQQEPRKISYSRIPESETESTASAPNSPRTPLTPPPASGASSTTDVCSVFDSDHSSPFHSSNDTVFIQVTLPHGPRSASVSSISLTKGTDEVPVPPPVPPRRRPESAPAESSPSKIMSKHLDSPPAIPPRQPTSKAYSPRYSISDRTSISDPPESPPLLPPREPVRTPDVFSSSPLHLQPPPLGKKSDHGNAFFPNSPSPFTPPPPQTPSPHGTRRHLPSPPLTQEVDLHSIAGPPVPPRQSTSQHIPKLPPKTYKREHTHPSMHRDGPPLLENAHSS

[2] = biological target: T2, KRAS G12C and SOS1 proteins (Homo sapiens, UniProt Q07889); test: KRAS-G12C/SOS1 binding assay (HTRF); details: Tag1-SOS1 / Tag2-KRAS G12C, 10 μM GTP
T2 construct: purchased Cisbio 63ADK000CB16PEG
T2 sequence (Q07889 1-1333): T1 sequence (Q07889 1-1333)
Protocol: KRAS-WT (or G12C/G12D/G12V)/SOS1 Binding Assay
Low IC50 values are indicative of high potency of the SOS1 inhibitor compounds in this assay setting.
The KRAS-WT (or G12C/G12D/G12V)/SOS1 binding assay is performed using an assay kit (Cisbio, Cat #63ADK000CB15PEG or 63ADK000CB16PEG/63ADK000CB17PEG/63ADK000CB18PEG) according to the procedure recommended by the manufacturer. • 1) Thaw and prepare the working solution of Tag1-SOS1 protein and Tag2-KRAS-WT (or G12C/G12D/G12V) protein with final concentration of 10 μM GTP (Sigma, Cat #V900868). • 2) Thaw and prepare the working solution of anti-Tag1-Tb^3+ anti-Tag2-XL665. • 3) Dispense 2 μL of serially diluted compound, 4 μL of Tag1-SOS1 protein and 4 μL of Tag2-KRAS-WT (or G12C/G12D/G12V) protein with GTP into a ProxiPlate-384 Plus, white 384-shallow well microplate (PerkinElmer, Cat #6008280). • 4) Incubate the plate for 15 minutes at room temperature. • 5) Dispense 10 μL of pre-mixed anti-Tag1-Tb^3+ and anti-Tag2-XL665 into the plate. • 6) Seal the plate and incubate for 2 hours at room temperature. • 7) Remove the plate sealer and read on PHERAstar FS (BMG LABTECH, PHERAstar FS). • 8) Calculate the ratio of the acceptor and donor emission signals for each individual well using the following equation.
[formula] • 9) IC50 values are fitted and calculated by HTRF signal values and log of compound concentrations to nonlinear regression [Log (inhibitor) vs. Response−Variable Slope (four parameters)] using the GraphPad Prism 8.0.

[3] = biological target: T3, KRAS-WT and SOS1 proteins (Homo sapiens, UniProt Q07889); test: KRAS-WT/SOS1 binding assay (HTRF); details: Tag1-SOS1 / Tag2-KRAS-WT, 10 μM GTP, read-out: Activity Data in Kras: SOS1 Assay, Wild Type
T3 construct: purchased Cisbio 63ADK000CB15PEG
T3 sequence (Q07889 1-1333): T1 sequence (Q07889 1-1333)

| Compound | IC50 [1] | IC50 [2] | IC50 [3] |
| --- | --- | --- | --- |
| Cc1nc(N[C@H](C)c2cccc3c2CCC3(F)F)c2cc(C3CCOCC3)c3nncn3c2n1 [Example 1, N-[(1R)-1-(1,1-difluoro-2,3-dihydro-1H-inden-4-yl)ethyl]-12-methyl-7-(oxan-4-yl)-2,4,5,11,13-pentaazatricyclo[7.4.0.0^{2,6}]trideca-1(9),3,5,7,10,12-hexaen-10-amine] | < 100 nM | < 100 nM | – |
| Cc1nc(N[C@H](C)c2cccc(C(F)F)c2F)c2cc(C3CCOCC3)c3nncn3c2n1 [Example 5, (R)-N-(1-(3-(difluoromethyl)-2-fluorophenyl)ethyl)-2-methyl-6-(tetrahydro-2H-pyran-4-yl)-[1,2,4]triazolo[4′,3′:1,6]pyrido[2,3-d]pyrimidin-4-amine] | – | < 100 nM | – |
| Cc1nc(N[C@H](C)c2cccc(C(F)(F)CO)c2)c2cc(-c3ccc(=O)n(C)c3)c3nncn3c2n1 [Example 6, (R)-5-(4-((1-(3-(1,1-difluoro-2-hydroxyethyl)phenyl)ethyl)amino)-2-methyl-[1,2,4]triazolo[4′,3′:1,6]pyrido[2,3-d]pyrimidin-6-yl)-1-methylpyridin-2(1H)-one] | – | < 100 nM | – |
| COc1cc2c(cc1C1=CCOCC1)c(N[C@H](C)c1cccc3c1CCC3(F)F)nc1ccnn12 [Example 49, (R)-N-(1-(1,1-difluoro-2,3-dihydro-1H-inden-4-y1)ethyl)-7-(3,6-dihydro-2H-pyran-4-yl)-8-methoxypyrazolo[1,5-a]quinazolin-5-amine] | – | 100 to 500 nM | – |
| Cc1nc(N[C@H](C)c2cccc(C(F)F)c2F)c2cc(-c3ccc(=O)n(C)c3)c3nncn3c2n1 [Example 4, (R)-5-(4-((1-(3-(difluoromethyl)-2-fluorophenyl)ethyl)amino)-2-methyl-[1,2,4]triazolo[4′,3′:1,6]pyrido[2,3-d]pyrimidin-6-yl)-1-methylpyridin-2(1H)-one] | – | < 100 nM | – |
| COc1cc2c(cc1-c1ccc(=O)n(C)c1)c(N[C@H](C)c1cccc(C(F)F)c1F)nc1ccnn12 [Example 48, (R)-5-(5-((1-(3-(difluoromethyl)-2-fluorophenyl)ethyl)amino)-8-methoxypyrazolo[1,5-a]quinazolin-7-yl)-1-methylpyridin-2(1H)-one] | – | 100 to 500 nM | – |
| Cc1nc(N[C@H](C)c2cccc3c2CCC3(F)F)c2cc(-c3ccc(=O)n(C)c3)c3nncn3c2n1 [Example 3, (R)-5-(4-((1-(1,1-difluoro-2,3-dihydro-1H-inden-4-yl)ethyl)amino)-2-methyl-[1,2,4]triazolo[4′,3′:1,6]pyrido[2,3-d]pyrimidin-6-yl)-1-methylpyridin-2(1H)-one] | – | 100 to 500 nM | – |
| C[C@@H](Nc1nc2ccnn2c2cc(=O)n(C3CCOCC3)cc12)c1cccc(C(F)F)c1F [Example 59, (R)-5-((1-(3-(difluoromethyl)-2-fluorophenyl)ethyl)amino)-7-(tetrahydro-2H-pyran-4-yl)pyrazolo[1,5-a]pyrido[3,4-e]pyrimidin-8(7H)-one] | – | < 100 nM | – |
| Cc1nc(N[C@H](C)c2cc(N)cc(C(F)(F)F)c2)c2cc(O[C@H]3CCOC3)c3c(cnn3C)c2n1 [Example 37, N-((R)-1-(3-amino-5-(trifluoromethyl)phenyl)ethyl)-2,7-dimethyl-6-(((S)-tetrahydrofuran-3-yl)oxy)-7H-pyrazolo[3,4-h]quinazolin-4-amine] | < 100 nM | – | < 100 nM |
| Cc1nc(N[C@H](C)c2cccc(C(F)(F)CO)c2)c2cc([C@H]3CC[C@H](O)CC3)c3nncn3c2n1 [Example 16, Trans-(R)-4-(4-((1-(3-(1,1-difluoro-2-hydroxyethyl)phenyl)ethyl)amino)-2-methyl-[1,2,4]triazolo[4′,3′:1,6]pyrido[2,3-d]pyrimidin-6-yl)cyclohexan-1-ol] | < 100 nM | – | < 100 nM |
| C[C@@H](Nc1nc2ccnn2c2cc(=O)n(C3(C)CC3)cc12)c1cccc(C(F)(F)CO)c1 [Example 61, (R)-5-((1-(3-(1,1-difluoro-2-hydroxyethyl)phenyl)ethyl)amino)-7-(1-methylcyclopropyl)pyrazolo[1,5-a]pyrido[3,4-e]pyrimidin-8(7H)-one] | < 100 nM | – | < 100 nM |
| Cc1c([C@@H](C)Nc2nc3ccnn3c3cc(=O)n(C4(C)CC4)cc23)cccc1C(F)(F)F [Example 63, (R)-5-((1-(2-methyl-3-(trifluoromethyl)phenyl)ethyl)amino)-7-(1-methylcyclopropyl)pyrazolo[1,5-a]pyrido[3,4-e]pyrimidin-8(7H)-one] | < 100 nM | – | < 100 nM |
| Cc1nc(N[C@H](C)c2cccc(C(F)(F)CO)c2)c2cc(-c3ccc(=O)[nH]c3)c3c(cnn3C)c2n1 [Example 29, (R)-5-(4-((1-(3-(1,1-difluoro-2-hydroxyethyl)phenyl)ethyl)amino)-2,7-dimethyl-7H-pyrazolo[3,4-h]quinazolin-6-yl)pyridin-2(1H)-one] | < 100 nM | – | < 100 nM |
| C[C@@H](Nc1nc2ccnn2c2cc(=O)n(C3(C)CC3)cc12)c1cccc(C(C)(F)F)c1F [Example 64, (R)-5-((1-(3-(1,1-difluoroethyl)-2-fluorophenyl)ethyl)amino)-7-(1-methylcyclopropyl)pyrazolo[1,5-a]pyrido[3,4-e]pyrimidin-8(7H)-one] | < 100 nM | – | < 100 nM |
| Cc1nc(N[C@H](C)c2cccc(C(F)(F)CO)c2)c2cc(-c3ccc(=O)n(C)c3)c3[nH]ncc3c2n1 [Example 27, (R)-5-(4-((1-(3-(1,1-difluoro-2-hydroxyethyl)phenyl)ethyl)amino)-2-methyl-7H-pyrazolo[3,4-h]quinazolin-6-yl)-1-methylpyridin-2(1H)-one] | < 100 nM | – | < 100 nM |
| CC(=O)N1CCC(Oc2cc3c(N[C@H](C)c4cccc5c4CCC5(F)F)nc(C)nc3c3cnn(C)c23)CC1 [Example 40, (R)-1-(4-((4-((1-(1,1-difluoro-2,3-dihydro-1H-inden-4-yl)ethyl)amino)-2,7-dimethyl-7H-pyrazolo[3,4-h]quinazolin-6-yl)oxy)piperidin-1-yl)ethan-1-one] | < 100 nM | – | < 100 nM |
| COc1cc2c(cc1C1CCOCC1)c(N[C@H](C)c1cccc3c1CCC3(F)F)nc1ccnn12 [Example 50, (R)-N-(1-(1,1-difluoro-2,3-dihydro-1H-inden-4-yl)ethyl)-8-methoxy-7-(tetrahydro-2H-pyran-4-yl)pyrazolo[1,5-a]quinazolin-5-amine] | – | 100 to 500 nM | – |
| COc1cc2c(cc1O[C@H]1CCOC1)c(N[C@H](C)c1cccc(C(F)(F)F)c1)nc1cncn12 [Example 56, 8-methoxy-7-(((S)-tetrahydrofuran-3-yl)oxy)-N—((R)-1-(3-(trifluoromethyl)phenyl)ethyl)imidazo[1,5-a]quinazolin-5-amine] | 500 to 5000 nM | – | 500 to 5000 nM |
